Patent publication US20230248638A1, “A PERSONAL CARE COMPOSITION COMPRISING ATRACTYLENOLIDE-I OR A SOURCE THEREOF” (Conopco, Inc., d/b/a UNILEVER, priority 2020, published 2023)

Tested on: Normal human epidermal melanocytes (NHEM)
Assay: Melanin content quantification in melanocytes
Format: cell-based
Conditions: 72 hours treatment, concentration as in Treatment column, melanin normalized to relative cell viability
Protocol: Normal human epidermal melanocytes (NHEM) (Biocell, Xi'an, China) were grown in melanocyte growth medium (MGM, Promocell, Germany) with human melanocyte growth supplement (Promocell, Germany). NHEM cells were seeded at a density of 4×10^4 cells in 500 μL MGM/well in a 24-well plate and incubated for 48 hours in an incubator (Thermo Scientific, Model 3111) at 37° C. with 5% CO2. After 48 hours, media was replaced with fresh media containing test samples (as per Table 1) for the following 72 hours.
After CCK8 absorbance readings were obtained, cells were lysed by lysis buffer at 60° C. for 1 hr. Then, 50 μL cell lysate was transferred to a new 96-well plate and absorbance was measured at 405 nm using TECAN plate reader. Serial dilutions of pure melanin were prepared as references.
The melanin content was calculated from the melanin standard curve. The melanin concentrations (μg/mL) were then normalized to the relative cell viability. The melanin inhibition rates were then calculated using the following equation: […]

Compound | Melanin inhibition rate (% inhibition)
CCCCCCC(O)CCCCCCCCCCC(=O)O (centres unmarked) [Example B, 12 hydroxystearic acid] | 5.6 ± 3.03
C=C1CCC[C@]2(C)C=C3OC(=O)C(C)=C3C[C@@H]12 [D, Atractylenolide -1] | 7.8 ± 2.80
